Patent US20230193197A1, “TUNABLE PLANT-BASED MATERIALS VIA IN VITRO CELL CULTURE USING A ZINNIA ELEGANS MODEL” (FORAY Bioscience, Inc., priority 2021, published 2023)

Tested on: Z. elegans cells
Assay: Full factorial hormone concentration experiment in liquid culture (live fraction, lignification, enlargement, elongation metrics)
Format: cell-based, Zinnia elegans
Details: for cumulative levels of lignification / live fraction at day 12: NAA at 0.5 mg ml^-1 together with BAP at 1 mg ml^-1, compared across 16 hormone combinations
Method: In an embodiment, Z. elegans cells may be isolated by the maceration of young Zinnia leaves (e.g., leaves 114). Leaves collected from approximately 14 day-old Zinnia plants may be rinsed under running tap water for 5 min. Leaves may be sterilized in a solution of 5 ml commercial bleach (Clorox), 95 ml of deionized water, and […] of Tween 20 (Sigma Aldrich) for 5 min. Subsequently, leaves may be rinsed thoroughly with sterile distilled water, sliced into strips, and ground between the surfaces of a small sieve and a spoon (e.g., a stainless steel spoon). The leaf matter may be intermittently rinsed with ZE-M media and the rinsate may be collected in a bowl positioned beneath the supporting sieve. After completion of grinding, the rinsate may be collected and filtered through a […] cell strainer (e.g., manufactured by Fisher Scientific) to remove large debris. This strainer is just but an example and should not be considered limiting. The filtered solution may be centrifuged at 100 g for 8 min and resulting supernatant removed if more concentrated cell solutions are desired. Liquid cultures may be maintained at concentrations between 250,000 and 500,000 cells ml^−1 at 3 ml per well in a 6-well plate wrapped in parafilm. Cultures may be maintained at 22° C. in the dark on an orbital shaker operating at 80 rpm.
Cells may be cultured in this manner for 48 hours in the low-hormone media before transference to specialized experimental media. An incubation period may improve differentiation rates when cells may be later exposed to elevated levels of auxin and cytokinin. Auxins may be plant hormones produced in the stem tip that promote cell elongation. Cytokinins may be a class of plant hormones that promote cell division, or cytokinesis. For dispersed gel cultures, cells may be extracted and maintained in low-hormone, liquid medium for a 48 hour acclimation period, as previously described, prior to transference to a gel medium 108 solidified by the addition of Gelzan C M (e.g., manufactured by Sigma Aldrich) at a final concentration of 3 g L^−1. Cultures may be sealed off with parafilm and maintained at 22° C. in the dark.
For liquid cultures, well-mixed […] aliquots of cell suspension may be transferred to 48 well plates for imaging. A […] volume of a fluorescein diacetate (FDA) stock solution (prepared at 2 mg ml^−1 acetone) may be added to the cell suspension and incubated in the dark for 20 min. After the incubation period, […] of calcofluor white (CW) may be added and the solution rested for an additional 5 min prior to imaging. A Zeiss LSM780 confocal microscope, for example, may be set to excitation/emission wavelengths of […]/440 nm (DAPI filter) for CW and 490 nm/526 nm for FDA for imaging. Gel cultures may be stained through a similar dual-step process after wetting the gel surface with a small amount of liquid medium. Relative staining volumes may be the same, but increased incubation times may be involved (e.g., incubation times were approximately 45 min for FDA incubation, 45 min for CW incubation). Image analysis may be performed using Image-i. The thresholding tool may be used to select the relevant cell areas. To ensure robustness of the analyzed data ranges, the images corresponding to the highest and lowest values for a single sample may be analyzed a total of 3 times, with the repeated results averaged to yield a final value for the given image. […]

c1ccc(CNc2ncnc3nc[nH]c23)cc1 [BAP, 6-benzylaminopurine]
elongation metric (BAP elevated, across most NAA concentrations): reduced | cumulative levels of lignification: highest | live fraction at day 12: lowest

O=C(O)Cc1cccc2ccccc12 [NAA, a-naphthaleneacetic acid]
cumulative levels of lignification: highest | live fraction at day 12: lowest
